Experimental data from patent publication US7312233B2, “Amide derivatives as ion-channel ligands and pharmaceutical compositions and methods of using the same” (Renovis, Inc., priority 2005, dated 2007).

These compounds were tested against T1, hVR1 (Homo sapiens, UniProt Q8NER1) (assay: Calcium uptake assay (Fura2, Flex Station) in HEK 293 cells expressing hVR1). Conditions: 0.3 μM compound, inhibition of agonist-induced calcium influx, 0.3 µM.
T1 construct: expressed in transfected cells; host or cells: T-REx HEK 293 (Invitrogen), pcDNA5/TO vector
T1 sequence (Q8NER1 whole entry): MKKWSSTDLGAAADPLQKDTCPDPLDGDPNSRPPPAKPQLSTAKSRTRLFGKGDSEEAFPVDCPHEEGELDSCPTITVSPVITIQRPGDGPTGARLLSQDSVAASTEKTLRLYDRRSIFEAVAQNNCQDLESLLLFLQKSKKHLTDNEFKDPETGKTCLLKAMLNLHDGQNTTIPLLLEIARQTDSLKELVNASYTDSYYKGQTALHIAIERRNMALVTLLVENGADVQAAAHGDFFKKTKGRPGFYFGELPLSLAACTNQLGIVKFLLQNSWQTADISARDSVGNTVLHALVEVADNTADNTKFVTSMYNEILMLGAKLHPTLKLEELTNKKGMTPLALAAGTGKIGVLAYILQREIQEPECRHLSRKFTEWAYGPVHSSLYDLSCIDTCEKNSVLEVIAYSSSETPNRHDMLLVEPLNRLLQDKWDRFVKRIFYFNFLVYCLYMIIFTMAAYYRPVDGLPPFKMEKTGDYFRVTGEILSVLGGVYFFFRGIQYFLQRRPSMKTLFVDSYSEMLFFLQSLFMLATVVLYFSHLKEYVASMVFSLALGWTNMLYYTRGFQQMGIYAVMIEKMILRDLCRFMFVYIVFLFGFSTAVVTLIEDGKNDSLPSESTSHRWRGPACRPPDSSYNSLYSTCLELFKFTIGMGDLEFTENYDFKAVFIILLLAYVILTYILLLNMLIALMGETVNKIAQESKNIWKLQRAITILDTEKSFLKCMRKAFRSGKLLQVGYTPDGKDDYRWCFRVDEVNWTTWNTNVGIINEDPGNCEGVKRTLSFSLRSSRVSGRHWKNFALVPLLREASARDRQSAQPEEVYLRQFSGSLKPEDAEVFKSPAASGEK
Type: cell-based
In the case of Cc1cc(C2CC2C(F)(F)F)ccc1C(=O)Nc1ccc2c(c1)OCCO2 (single isomer, unassigned) [Compound 8, N-(2,3-dihydrobenzo[b][1,4]dioxin-6-yl)-2-methyl-4-(2-(trifluoromethyl)cyclopropyl)benzamide], the “% Inhib. @ 0.3 μM” value is reported as “+ (compound exhibited 0-25% inhibition of calcium ion influx)”. With Cc1cc(C2CC2C(F)(F)F)ccc1C(=O)Nc1cnc2ccccc2c1 (single isomer, unassigned) [Compound 18, 2-methyl-N-(quinolin-3-yl)-4-(2-(trifluoromethyl)cyclopropyl)benzamide] the “% Inhib. @ 0.3 μM” value was “+++ (compound exhibited 50-75% inhibition of calcium ion influx)”. For Cc1cc(C2CC2C(F)(F)F)ccc1C(=O)Nc1ccc2c(c1)OCCO2 (single isomer, unassigned) [Compound 13, N-(2,3-dihydrobenzo[b][1,4]dioxin-6-yl)-2-methyl-4-(2-(trifluoromethyl)cyclopropyl)benzamide], the “% Inhib. @ 0.3 μM” value was “+++ (compound exhibited 50-75% inhibition of calcium ion influx)”. In the case of Cc1cc(C2CC2C(F)(F)F)ccc1C(=O)Nc1cnc2ccccc2c1 (single isomer, unassigned) [Compound 19, 2-methyl-N-(quinolin-3-yl)-4-(2-(trifluoromethyl)cyclopropyl)benzamide], the “% Inhib. @ 0.3 μM” value is reported as “+ (compound exhibited 0-25% inhibition of calcium ion influx)”. Cc1cc(C2CC2C(F)(F)F)ccc1C(=O)Nc1cnc2ccccc2c1 (single isomer, unassigned) [Compound 17, 2-methyl-N-(quinolin-3-yl)-4-(2-(trifluoromethyl)cyclopropyl)benzamide] was tested, and the “% Inhib. @ 0.3 μM” value was “+++ (compound exhibited 50-75% inhibition of calcium ion influx)”. In the case of Cc1cc(C2CC2C(F)(F)F)ccc1C(=O)Nc1cnc2ccccc2c1 (single isomer, unassigned) [Compound 20, 2-methyl-N-(quinolin-3-yl)-4-(2-(trifluoromethyl)cyclopropyl)benzamide], the “% Inhib. @ 0.3 μM” value is reported as “++ (compound exhibited 25-50% inhibition of calcium ion)”.

Same assay, conditions: HEK293, 0.3 μM compound, inhibition of agonist-induced calcium influx, read-out: % Inhib. @ 0.3 μM
Compound Cc1nc2cc(NC(=O)c3ccc(C4CC4C(F)(F)F)cc3C)ccc2s1 (single isomer, unassigned) [Compound 11, 2-methyl-N-(2-methylbenzo[d]thiazol-5-yl)-4-(2-(trifluoromethyl)cyclopropyl)benzamide] has an inhibition at 0.3 µM greater than 75%. Cc1nc2cc(NC(=O)c3ccc(C4CC4)cc3C)ccc2s1 [Compound 7, 4-cyclopropyl-2-methyl-N-(2-methylbenzo[d]thiazol-5-yl)benzamide] was tested, and the inhibition at 0.3 µM was greater than 75%. Cc1cc(C2CC2)ccc1C(=O)Nc1cnc2ccccc2c1 [Compound 5, 4-cyclopropyl-2-methyl-N-(quinolin-3-yl)benzamide] was tested, and the inhibition at 0.3 µM was greater than 75%. COc1cccc(NC(=O)c2ccc(C3CC3C(F)(F)F)cc2C)c1 (single isomer, unassigned) [Compound 16, N-(3-methoxyphenyl)-2-methyl-4-(2-(trifluoromethyl)cyclopropyl)benzamide] showed an inhibition at 0.3 µM of 25 to 50%. COc1ccc(NC(=O)c2ccc(C3CC3C(F)(F)F)cc2C)cn1 (single isomer, unassigned) [Compound 10, N-(6-methoxypyridin-3-yl)-2-methyl-4-(2-(trifluoromethyl)cyclopropyl)benzamide] gave an inhibition at 0.3 µM of 25 to 50%. Compound O=C(Nc1cnc2ccccc2c1)c1ccc(C2CC2(Cl)Cl)cc1 (centres unmarked) [Compound 3, 4-(2,2-dichlorocyclopropyl)-N-(quinolin-3-yl)benzamide] has an inhibition at 0.3 µM of 50 to 75%. In the case of Cc1nc2cc(NC(=O)c3ccc(C4CC4(Cl)Cl)cc3)ccc2s1 (centres unmarked) [Compound 6, 4-(2,2-dichlorocyclopropyl)-N-(2-methylbenzo[d]thiazol-5-yl)benzamide], the inhibition at 0.3 µM is reported as greater than 75%. Compound Cc1cc(C2CC2C(F)(F)F)ccc1C(=O)Nc1ccc2sc(CO)nc2c1 (single isomer, unassigned) [Compound 15] has an inhibition at 0.3 µM greater than 75%. Cc1cc(C2CC2C(F)(F)F)ccc1C(=O)Nc1cccc2c1CCCC2 (single isomer, unassigned) [Compound 9, 2-methyl-N-(5,6,7,8-tetrahydronaphthalen-1-yl)-4-(2-(trifluoromethyl)cyclopropyl)benzamide] gave an inhibition at 0.3 µM of 0 to 25%. COc1cccc(NC(=O)c2ccc(C3CC3(Cl)Cl)cc2)c1 (centres unmarked) [Compound 4, 4-(2,2-dichlorocyclopropyl)-N-(3-methoxyphenyl)benzamide] showed an inhibition at 0.3 µM greater than 75%. Work on Cc1cc(C2CC2)ccc1C(=O)Nc1ccc(C(C)(C)C)cc1 [Compound 2, N-(4-tert-butylphenyl)-4-cyclopropyl-2-methylbenzamide] yielded an inhibition at 0.3 µM of 0 to 25%. COc1cccc(NC(=O)c2ccc(C3CC3)cc2C)c1 [Compound 1, 4-cyclopropyl-N-(3-methoxyphenyl)-2-methylbenzamide] showed an inhibition at 0.3 µM of 50 to 75%.

What follows are compounds tested against T2, HsVR1 (Homo sapiens, UniProt Q8NER1) (assay: Two-electrode voltage clamp recording (OpusXpress) of capsaicin induced VR1 current in Xenopus oocytes injected with HsVR1 RNA). Conditions: 250 nM capsaicin induced VR1 current, n=5 oocytes, FIG. 1.
T2 construct: expressed in transfected cells; host or cells: Xenopus oocytes injected with HsVR1 RNA
T2 sequence (Q8NER1 whole entry): as above
Type: cell-based
Protocol: Oocytes are prepared by surgically removing Xenopus ovaries obtained from NASCO. The oocytes are isolated by enzymatic dissociation using collagenase (Worthington, 2 mg/ml). Oocytes are then individually injected with HsVR1 RNA. Each oocyte receives 64 nl of RNA solution in water at a concentration of 0.5 μg/μl. Injected oocytes are stored in standard oocyte incubation solution, ND96, containing (in mM) 96 NaCl, 2 KCl, 1 MgCl2, 1.8 CaCl2 and 50 μg/ml Gentamicin at 16° C. […] Eight oocytes are placed in the recording chambers. Each oocyte is impaled by 2 glass electrodes having resistances of 0.5 to 1 MOhm when filled with a 3 M KCl solution. Electrode advancement and oocyte impalement are under software control (OpusXpress® 1.1 Molecular Devices Corporation). The solutions are prepared in 96 well plates and robotically pipetted into the oocyte recording chambers by an 8 channel pipettor. Test solution delivery to the oocytes during the experiment is also under software control. […] The standard test concentrations for the compounds tested here usually range from 0.3 to 2000 nM. Quantitative measurement of VR1 current block is done by calculating the area under the curve described by the inward current. […] These points are then plotted on a logarithmic scale and fitted by a Hill function. The IC50 is calculated from the resulting Hill fit.
Compound Cc1nc2cc(NC(=O)c3ccc(C4CC4)cc3C)ccc2s1 [Compound 7, 4-cyclopropyl-2-methyl-N-(2-methylbenzo[d]thiazol-5-yl)benzamide] has an IC50 of 178 ± 26 nM.

Same assay, conditions: +/- standard error measurement, FIG. 1 legend
With Cc1nc2cc(NC(=O)c3ccc(C4CC4)cc3C)ccc2s1 [Compound 7, 4-cyclopropyl-2-methyl-N-(2-methylbenzo[d]thiazol-5-yl)benzamide] the IC50 was 177 nM.
